Source: ChEMBL document CHEMBL3808364, “The SAR of brain penetration for a series of heteroaryl urea FAAH inhibitors” (Bioorg Med Chem Lett, 2016)
The source made the active and inactive calls. No cut-off for these calls is given here.

System: Rattus norvegicus
Assay: Inhibition of FAAH in Sprague-Dawley rat brain homogenate assessed as time duration needed for enzyme activity recovery by measuring [3H]-anandamide hydrolysis at 20 mg/kg by liquid scintillation analysis
Format: functional
Details: not given

Compound	Time
O=C(Nc1cccnc1)N1CCC(Cc2cccc(Oc3ccc(Cl)cn3)c2)CC1	24 h
N#Cc1ccncc1NC(=O)N1CCN(Cc2cccc(Oc3ccc(Cl)cc3)c2)CC1	24 h
O=C(Nc1cnccn1)N1CCN(Cc2cccc(Oc3ccc(Cl)cc3)c2)CC1	24 h
O=C(Nc1cccnc1)N1CCN(Cc2cccc(Oc3ccc(Br)cc3)c2)CC1	24 h
O=C(Nc1cccnc1)N1CCN(Cc2cccc(Oc3ccc(Cl)cc3)c2)CC1	24 h
O=C(Nc1cccnc1)N1CCN(Cc2cccc(Oc3ccc(F)cc3)c2)CC1	24 h
O=C(Nc1ccon1)N1CCN(Cc2cccc(Oc3ccc(Cl)cc3)c2)CC1	24 h
O=C(Nc1cccnc1)N1CCCC(Cc2cccc(Oc3ccc(F)cc3)c2)C1 (stereo not given)	24 h
O=C(Nc1cc[nH]n1)N1CCN(Cc2cccc(Oc3ccc(Cl)cc3)c2)CC1	24 h

System: not listed separately
Assay: Clearance in Sprague-Dawley rat
Format: ADME, organism-based
Details: in vivo

clearance	Compound
15.5 mL/min/kg	O=C(Nc1cnccn1)N1CCN(Cc2cccc(Oc3ccc(Cl)cc3)c2)CC1
13.3 mL/min/kg	O=C(Nc1cccnc1)N1CCN(Cc2cccc(Oc3ccc(Br)cc3)c2)CC1
3.33 mL/min/kg	O=C(Nc1nnn[nH]1)N1CCN(Cc2cccc(Oc3ccc(Cl)cc3)c2)CC1
11.5 mL/min/kg	O=C(Nc1cccnc1)N1CCN(Cc2cccc(Oc3ccc(Cl)cc3)c2)CC1
10 mL/min/kg	O=C(Nc1cccnc1)N1CCN(Cc2cccc(Oc3ccc(F)cc3)c2)CC1
10 mL/min/kg	O=C(Nc1ccon1)N1CCN(Cc2cccc(Oc3ccc(Cl)cc3)c2)CC1
8.33 mL/min/kg	O=C(Nc1cc[nH]n1)N1CCN(Cc2cccc(Oc3ccc(Cl)cc3)c2)CC1

System: Rattus norvegicus
Assay: Inhibition of FAAH in Sprague-Dawley rat brain homogenate assessed as residual activity measured as [3H]-anandamide hydrolysis at 20 mg/kg within 30 mins by liquid scintillation analysis
Format: functional
Details: not given

Compound	Activity
O=C(Nc1cnccn1)N1CCN(Cc2cccc(Oc3ccc(Cl)cc3)c2)CC1	10%

System: not listed separately
Assay: Ratio of drug level in brain to plasma in Sprague-Dawley rat at 0.6 mg/kg via oral gavage
Format: ADME, organism-based
Details: read-out: BPR

Kp	Compound
2.62	O=C(Nc1cccnc1)N1CCN(Cc2cccc(Oc3ccc(Cl)cc3)c2)CC1

Target: T1, Fatty-acid amide hydrolase 1 (Rattus norvegicus, UniProt P97612)
T1 sequence (P97612 whole entry): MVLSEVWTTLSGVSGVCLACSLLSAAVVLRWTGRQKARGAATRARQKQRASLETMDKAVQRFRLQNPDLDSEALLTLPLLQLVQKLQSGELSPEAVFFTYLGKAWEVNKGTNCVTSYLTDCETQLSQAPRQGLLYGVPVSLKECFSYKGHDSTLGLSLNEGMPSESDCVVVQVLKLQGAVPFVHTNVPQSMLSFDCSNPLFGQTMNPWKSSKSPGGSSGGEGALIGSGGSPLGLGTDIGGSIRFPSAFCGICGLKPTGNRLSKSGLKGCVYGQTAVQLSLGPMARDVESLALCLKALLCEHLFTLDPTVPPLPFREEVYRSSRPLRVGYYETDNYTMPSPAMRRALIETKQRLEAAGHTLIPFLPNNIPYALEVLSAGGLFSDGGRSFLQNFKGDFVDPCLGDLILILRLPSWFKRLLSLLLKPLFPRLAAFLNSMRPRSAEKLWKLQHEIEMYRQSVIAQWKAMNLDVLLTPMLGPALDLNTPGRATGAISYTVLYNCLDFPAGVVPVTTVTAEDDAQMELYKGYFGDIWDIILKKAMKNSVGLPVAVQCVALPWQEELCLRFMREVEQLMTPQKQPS
Assay: Apparent inhibition of recombinant rat FAAH expressed in SK-N-MC cells assessed as [3H]-anandamide hydrolysis after 1 hr by liquid scintillation analysis
Format: cell-based
Details: not given

IC50	Compound
22 nM	O=C(Nc1cccnc1)N1CCC(Cc2cccc(Oc3ccc(Cl)cn3)c2)CC1
17 nM	N#Cc1ccncc1NC(=O)N1CCN(Cc2cccc(Oc3ccc(Cl)cc3)c2)CC1
84 nM	O=C(Nc1cnccn1)N1CCN(Cc2cccc(Oc3ccc(Cl)cc3)c2)CC1
20 nM	O=C(Nc1cccnc1)N1CCN(Cc2cccc(Oc3ccc(Br)cc3)c2)CC1
290 nM	O=C(Nc1cccnc1)N1CCN(Cc2cccc(Oc3ccc(F)cc3)c2)CC1
41 nM	O=C(Nc1cccnc1)N1CCCC(Cc2cccc(Oc3ccc(F)cc3)c2)C1 (stereo not given)

System: not listed separately
Assay: Dissociation constant, pKa of the compound at pH 7.2
Format: physicochemical
Details: not given

pKa	Compound
4.9	O=C(Nc1nnn[nH]1)N1CCN(Cc2cccc(Oc3ccc(Cl)cc3)c2)CC1

System: Rattus norvegicus
Assay: Inhibition of FAAH in Sprague-Dawley rat brain homogenate assessed as increase in OEA levels at 20 mg/kg after 0.5 to 4 hrs by […]
Format: functional, organism-based
Details: not given

Compound	OEA level increase (activity call)
O=C(Nc1cccnc1)N1CCC(Cc2cccc(Oc3ccc(Cl)cn3)c2)CC1	Active
N#Cc1ccncc1NC(=O)N1CCN(Cc2cccc(Oc3ccc(Cl)cc3)c2)CC1	Active
O=C(Nc1cnccn1)N1CCN(Cc2cccc(Oc3ccc(Cl)cc3)c2)CC1	Active
O=C(Nc1cccnc1)N1CCN(Cc2cccc(Oc3ccc(F)cc3)c2)CC1	Active
O=C(Nc1ccon1)N1CCN(Cc2cccc(Oc3ccc(Cl)cc3)c2)CC1	Active
O=C(Nc1cccnc1)N1CCCC(Cc2cccc(Oc3ccc(F)cc3)c2)C1 (stereo not given)	Active
O=C(Nc1cc[nH]n1)N1CCN(Cc2cccc(Oc3ccc(Cl)cc3)c2)CC1	Active

Organism: Rattus norvegicus
Details: Sprague-Dawley, Brain, 20 mg/kg
Description: Inhibition of FAAH in Sprague-Dawley rat brain homogenate assessed as reduction in residual activity measured as [3H]-anandamide hydrolysis at 20 mg/kg measured after 0.5 to 6 hrs by liquid scintillation analysis

Compound	inhibition
O=C(Nc1cnccn1)N1CCN(Cc2cccc(Oc3ccc(Cl)cc3)c2)CC1	Active

System: Rattus norvegicus
Assay: In-vivo reversible inhibition of FAAH in Sprague-Dawley rat brain homogenate assessed as residual activity measured as [3H]-anandamide hydrolysis after 48 hrs by liquid scintillation analysis
Format: functional, organism-based
Details: not given

Compound	inhibition
O=C(Nc1cccnc1)N1CCN(Cc2cccc(Oc3ccc(Cl)cc3)c2)CC1	Active

System: not listed separately
Assay: Ratio of drug level in brain to plasma in Sprague-Dawley rat at 20 mg/kg via oral gavage
Format: ADME, organism-based
Details: read-out: BPR

Kp	Compound
0.45	O=C(Nc1cccnc1)N1CCC(Cc2cccc(Oc3ccc(Cl)cn3)c2)CC1
3.28	N#Cc1ccncc1NC(=O)N1CCN(Cc2cccc(Oc3ccc(Cl)cc3)c2)CC1
1.58	O=C(Nc1cccnc1)N1CCN(Cc2cccc(Oc3ccc(Br)cc3)c2)CC1
2.62	O=C(Nc1cccnc1)N1CCN(Cc2cccc(Oc3ccc(Cl)cc3)c2)CC1
1.57	O=C(Nc1cccnc1)N1CCN(Cc2cccc(Oc3ccc(F)cc3)c2)CC1
0.33	O=C(Nc1cccnc1)N1CCCC(Cc2cccc(Oc3ccc(F)cc3)c2)C1 (stereo not given)

System: Rattus norvegicus
Assay: Inhibition of FAAH in Sprague-Dawley rat brain homogenate assessed as increase in PEA levels at 20 mg/kg after 0.5 to 4 hrs by […]
Format: functional, organism-based
Details: not given

Compound	FAAH inhibition (PEA level increase), active/inactive
O=C(Nc1cccnc1)N1CCC(Cc2cccc(Oc3ccc(Cl)cn3)c2)CC1	Active
N#Cc1ccncc1NC(=O)N1CCN(Cc2cccc(Oc3ccc(Cl)cc3)c2)CC1	Active
O=C(Nc1cnccn1)N1CCN(Cc2cccc(Oc3ccc(Cl)cc3)c2)CC1	Active
O=C(Nc1cccnc1)N1CCN(Cc2cccc(Oc3ccc(F)cc3)c2)CC1	Active
O=C(Nc1ccon1)N1CCN(Cc2cccc(Oc3ccc(Cl)cc3)c2)CC1	Active
O=C(Nc1cccnc1)N1CCCC(Cc2cccc(Oc3ccc(F)cc3)c2)C1 (stereo not given)	Active
O=C(Nc1cc[nH]n1)N1CCN(Cc2cccc(Oc3ccc(Cl)cc3)c2)CC1	Active

System: not listed separately
Assay: Dissociation constant, pKa of the compound
Format: physicochemical
Details: not given

pKa	Compound
1.9	N#Cc1ccncc1NC(=O)N1CCN(Cc2cccc(Oc3ccc(Cl)cc3)c2)CC1
0.6	O=C(Nc1cnccn1)N1CCN(Cc2cccc(Oc3ccc(Cl)cc3)c2)CC1
5.25	O=C(Nc1cccnc1)N1CCN(Cc2cccc(Oc3ccc(Cl)cc3)c2)CC1
2.5	O=C(Nc1cc[nH]n1)N1CCN(Cc2cccc(Oc3ccc(Cl)cc3)c2)CC1

System: not listed separately
Assay: Oral bioavailability in Sprague-Dawley rat
Format: ADME, organism-based
Details: in vivo

bioavailability	Compound
35%	O=C(Nc1cnccn1)N1CCN(Cc2cccc(Oc3ccc(Cl)cc3)c2)CC1
100%	O=C(Nc1cccnc1)N1CCN(Cc2cccc(Oc3ccc(Br)cc3)c2)CC1
100%	O=C(Nc1nnn[nH]1)N1CCN(Cc2cccc(Oc3ccc(Cl)cc3)c2)CC1
100%	O=C(Nc1cccnc1)N1CCN(Cc2cccc(Oc3ccc(F)cc3)c2)CC1
50%	O=C(Nc1ccon1)N1CCN(Cc2cccc(Oc3ccc(Cl)cc3)c2)CC1
75%	O=C(Nc1cc[nH]n1)N1CCN(Cc2cccc(Oc3ccc(Cl)cc3)c2)CC1

System: not listed separately
Assay: Ratio of drug level in brain to plasma in Sprague-Dawley rat at 6 mg/kg via oral gavage
Format: ADME, organism-based
Details: read-out: BPR

Kp	Compound
2.62	O=C(Nc1cccnc1)N1CCN(Cc2cccc(Oc3ccc(Cl)cc3)c2)CC1

Target: T2, Fatty-acid amide hydrolase 1 (Homo sapiens, UniProt O00519)
T2 sequence (O00519 whole entry): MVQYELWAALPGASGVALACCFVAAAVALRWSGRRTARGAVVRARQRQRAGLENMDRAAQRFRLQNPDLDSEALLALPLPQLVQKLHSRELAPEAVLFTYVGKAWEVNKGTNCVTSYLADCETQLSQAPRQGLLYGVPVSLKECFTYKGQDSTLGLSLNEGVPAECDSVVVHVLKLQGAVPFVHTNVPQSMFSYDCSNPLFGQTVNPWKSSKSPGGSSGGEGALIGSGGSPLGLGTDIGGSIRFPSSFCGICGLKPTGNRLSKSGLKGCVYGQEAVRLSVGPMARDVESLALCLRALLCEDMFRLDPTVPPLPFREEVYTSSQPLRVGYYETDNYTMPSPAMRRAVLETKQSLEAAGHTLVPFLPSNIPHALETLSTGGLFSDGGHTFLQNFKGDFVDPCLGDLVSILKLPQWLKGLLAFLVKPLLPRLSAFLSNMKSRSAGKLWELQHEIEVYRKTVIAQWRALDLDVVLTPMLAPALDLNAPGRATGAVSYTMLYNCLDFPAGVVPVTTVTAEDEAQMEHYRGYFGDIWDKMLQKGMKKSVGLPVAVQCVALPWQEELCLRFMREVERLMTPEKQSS
Details: not given

IC50	Compound
1 nM	O=C(Nc1cccnc1)N1CCC(Cc2cccc(Oc3ccc(Cl)cn3)c2)CC1
17 nM	N#Cc1ccncc1NC(=O)N1CCN(Cc2cccc(Oc3ccc(Cl)cc3)c2)CC1
2.4 nM	O=C(Nc1cccnc1)N1CCN(Cc2cccc(Oc3ccc(Br)cc3)c2)CC1
16 nM	O=C(Nc1cccnc1)N1CCN(Cc2cccc(Oc3ccc(F)cc3)c2)CC1
28 nM	O=C(Nc1cccnc1)N1CCCC(Cc2cccc(Oc3ccc(F)cc3)c2)C1 (stereo not given)

System: not listed separately
Assay: Volume of distribution at Steady state in Sprague-Dawley rat
Format: ADME, organism-based
Details: in vivo, read-out: Vdss

Vd	Compound
4.11 L/kg	O=C(Nc1cnccn1)N1CCN(Cc2cccc(Oc3ccc(Cl)cc3)c2)CC1
2.8 L/kg	O=C(Nc1cccnc1)N1CCN(Cc2cccc(Oc3ccc(Br)cc3)c2)CC1
1.1 L/kg	O=C(Nc1nnn[nH]1)N1CCN(Cc2cccc(Oc3ccc(Cl)cc3)c2)CC1
3.2 L/kg	O=C(Nc1cccnc1)N1CCN(Cc2cccc(Oc3ccc(Cl)cc3)c2)CC1
4 L/kg	O=C(Nc1cccnc1)N1CCN(Cc2cccc(Oc3ccc(F)cc3)c2)CC1
2.6 L/kg	O=C(Nc1ccon1)N1CCN(Cc2cccc(Oc3ccc(Cl)cc3)c2)CC1
2 L/kg	O=C(Nc1cc[nH]n1)N1CCN(Cc2cccc(Oc3ccc(Cl)cc3)c2)CC1
